Assay results reported in ChEMBL document CHEMBL5236561, “Rugonidines A-F, Diastereomeric 1,6-Dioxa-7,9-diazaspiro[4.5]dec-7-en-8-amines from the Leaves of Alchornea rugosa” (J Nat Prod, 2021).
Active and inactive are the calls of the source.

Columns and labels:
Type in all cases: functional, cell-based
3T3-L1 [1] = test: Induction of glucose uptake in mouse 3T3-L1 cells assessed as stimulation of in 2-NBDG uptake by measuring fluorescence intensity at 20 uM incubated for 1 hr in glucose free media hr by fluorescence microscopic analysis
3T3-L1 [2] = test: Induction of glucose uptake in mouse 3T3-L1 cells assessed as stimulation of in 2-NBDG uptake by measuring fluorescence intensity incubated for 1 hr in glucose free media hr by fluorescence microscopic analysis; settings: dose 5-20 µM
3T3-L1 [3] = test: Induction of glucose uptake in mouse 3T3-L1 cells assessed as stimulation of in 2-NBDG uptake by measuring fluorescence intensity at 5 to 20 uM incubated for 1 hr in glucose free media hr by fluorescence microscopic analysis; settings: dose 5-20 µM

Measured: Activity

C[C@@H]1O[C@@H](O[C@H]2Cc3c(O)cc4c(c3O[C@@H]2c2ccc(O)c(O)c2)C(C)(C)[C@@]2(CNC(N)=NO2)O4)[C@H](O)[C@H](O)[C@H]1O
active: 3T3-L1 [1] | 3T3-L1 [2] Dose-Dependent Effect | 3T3-L1 [3]

CC(C)=CCNC1=NO[C@@]2(CN1)Oc1cc(O)c3c(c1C2(C)C)O[C@H](c1ccc(O)c(O)c1)[C@@H](O[C@@H]1O[C@@H](C)[C@H](O)[C@@H](O)[C@H]1O)C3
active: 3T3-L1 [1] | 3T3-L1 [2] Dose-Dependent Effect | 3T3-L1 [3]

CC(C)=CCNC1=NO[C@]2(CN1)Oc1cc(O)c3c(c1C2(C)C)O[C@H](c1ccc(O)c(O)c1)[C@@H](O[C@@H]1O[C@@H](C)[C@H](O)[C@@H](O)[C@H]1O)C3
active: 3T3-L1 [1] | 3T3-L1 [2] Dose-Dependent Effect | 3T3-L1 [3]
